In patent US12371454B2, “Cyclic peptide compound having Kras inhibitory action” (priority 2019, dated 2025) one finds IC50 data, which are given here for eight compounds.

SMILES strings stand for the structures. Positions of bridges follow the written chain, without caps; N, C: chain ends. Non-standard residues stand in square brackets, D forms with d. Residues, ends and D or L forms follow the SMILES beside them. *: point of attachment. hPhe(3-Cl-4-CF3) = N[C@@H](CCc1ccc(C(F)(F)F)c(Cl)c1)C(=O)O; 3Oxa8azabicyclo(3.2.1)octane = C1CC2COCC1N2*; NMePhe(4-Me) = CN[C@@H](Cc1ccc(C)cc1)C(=O)O; NMeAla(cPent) = CN[C@@H](CC1CCCC1)C(=O)O; NMeNva(5,5-F2) = CN[C@@H](CCC(F)F)C(=O)O; NMeGly(cPent) = CN[C@H](C(=O)O)C1CCCC1; NMeY = CN[C@@H](Cc1ccc(O)cc1)C(=O)O; NMeCha = CN[C@@H](CC1CCCCC1)C(=O)O; NMeChg = CN[C@H](C(=O)O)C1CCCCC1; NMeI = CC[C@H](C)[C@H](NC)C(=O)O; NMeD = CN[C@@H](CC(=O)O)C(=O)O; NMeL = CN[C@@H](CC(C)C)C(=O)O; NMeNva = CCC[C@H](NC)C(=O)O; NMeV = CN[C@H](C(=O)O)C(C)C; d(β3hA) = C[C@@H](N)CC(=O)O; NMeAbu = CC[C@H](NC)C(=O)O; NMeS = CN[C@@H](CO)C(=O)O; Morpholide = C1CN(*)CCO1; Piperidide = C1CCN(*)CC1; Pyrrolidide = C1CCN(*)C1; Ac5c = NC1(C(=O)O)CCCC1; Cyclopropyl = C1CC1*; CF3 = FC(F)(F)*; Sar = CNCC(=O)O

In assay [1] the target is T1, Kras and SOS1 (biotin-tagged human Kras loaded with GDP, His-tagged human SOS1) (Homo sapiens, UniProt P01116, G12D).
T1 construct: made in house; host or cells: E. coli (stated for Kras only)
T1 sequence (P01116 1-188 isoform P01116-2 G12D): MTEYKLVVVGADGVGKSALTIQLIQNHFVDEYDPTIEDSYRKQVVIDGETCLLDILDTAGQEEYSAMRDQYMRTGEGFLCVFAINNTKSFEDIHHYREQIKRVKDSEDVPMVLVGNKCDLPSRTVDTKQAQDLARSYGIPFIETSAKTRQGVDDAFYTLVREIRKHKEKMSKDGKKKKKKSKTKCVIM
Nature of the assay: Protein-protein interaction inhibition between Kras and SOS1 (KrasGl2D-SOS PPI) using AlphaScreen. The assay is classed as binding. The following applies: AlphaScreen; biotin-tagged human Kras loaded with GDP, His-tagged human SOS1; read-out: KRAS G12D-SOS PPI IC50. In short, it runs like this: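 Energy transfer from nickel-chelate donor beads bound to His-SOS1 to streptavidin acceptor beads bound to biotin-Kras, expressed in E. coli and loaded with GDP after purification, was monitored. Donors were excited at 680 nm; singlet oxygen reaching acceptors gave emission read at 520-620 nm.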
On the technique in general: Alpha assays give light when donor and acceptor beads are brought close together.

For assay [2], the system named is Human pancreatic cancer cell line AsPC-1. Briefly: Measurement of AsPC-1 cell growth inhibition (AsPC-1 CGI). It is filed as cell-based. The settings on record: 96 h. In short, it runs like this:
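AsPC-1 cells in 15% FBS RPMI-1640 were exposed to test compound for 96 hours at 37° C, with CellTiter-Glo as endpoint.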

The term IC50 denotes the concentration at which inhibition is half-maximal.

In the case of `CC[C@H](C)[C@@H]1NC(=O)[C@H](CC(C)C)N(C)C(=O)C[C@@H](C(=O)N2CCCC2)N(C)C(=O)[C@H](C2CCCCC2)N(C)C(=O)C2(CCCC2)NC(=O)[C@@H]2CCCN2C(=O)[C@H](CCc2ccc(C(F)(F)F)c(Cl)c2)NC(=O)CN(C)C(=O)[C@H](Cc2ccc(C)cc2)N(C)C(=O)CN(C)C(=O)CN(C)C1=O` [Compound 1658] ([NMeL]I[Sar][Sar][NMePhe(4-Me)][Sar][hPhe(3-Cl-4-CF3)]P[Ac5c][NMeChg][NMeD]-Pyrrolidide; lactam N-11), the IC50 in assay [1] was 0.55 nM; in assay [2] it was 20 to 50 nM.

`CC[C@H](C)[C@@H]1NC(=O)[C@H](CC)N(C)C(=O)C[C@@H](C(=O)N2CCCC2)N(C)C(=O)[C@H](C2CCCCC2)N(C)C(=O)C2(CCCC2)NC(=O)[C@@H]2CCCN2C(=O)[C@H](CCc2ccc(C(F)(F)F)c(Cl)c2)NC(=O)CN(C)C(=O)[C@H](CC2CCCC2)N(C)C(=O)CN(C)C(=O)CN(C)C1=O` [Compound 1931] ([NMeAbu]I[Sar][Sar][NMeAla(cPent)][Sar][hPhe(3-Cl-4-CF3)]P[Ac5c][NMeChg][NMeD]-Pyrrolidide; lactam N-11): the values for the IC50 in assay [1] and in assay [2] were 0.56 nM and 100 to 500 nM, respectively.

Turning to `CCC[C@H]1C(=O)N[C@@H]([C@@H](C)CC)C(=O)N(C)CC(=O)N(C)CC(=O)N(C)[C@@H](CC2CCCC2)C(=O)N(C)CC(=O)N[C@@H](CCc2ccc(C(F)(F)F)c(Cl)c2)C(=O)N2CCC[C@H]2C(=O)NC2(CCCC2)C(=O)N(C)[C@@H](C2CCCCC2)C(=O)N(C)[C@H](C(=O)N2CCOCC2)CC(=O)N1C` [Compound 1998] ([NMeNva]I[Sar][Sar][NMeAla(cPent)][Sar][hPhe(3-Cl-4-CF3)]P[Ac5c][NMeChg][NMeD]-Morpholide; lactam N-11), the IC50 in assay [1] is 0.75 nM; in assay [2] it was 100 to 500 nM.

In the case of `CC[C@H](C)[C@@H]1NC(=O)[C@H](CCC(F)F)N(C)C(=O)C[C@@H](C(=O)N2CCCCC2)N(C)C(=O)[C@H](C2CCCCC2)N(C)C(=O)C2(CCCC2)NC(=O)[C@@H]2CCCN2C(=O)[C@H](CCc2ccc(C(F)(F)F)c(Cl)c2)NC(=O)CN(C)C(=O)[C@H](CC2CCCCC2)N(C)C(=O)CN(C)C(=O)CN(C)C1=O` [Compound 1700] ([NMeNva(5,5-F2)]I[Sar][Sar][NMeCha][Sar][hPhe(3-Cl-4-CF3)]P[Ac5c][NMeChg][NMeD]-Piperidide; lactam N-11), the IC50 in assay [1] is 0.66 nM; in assay [2], 20 to 50 nM.

Consider `CC[C@H](C)[C@@H]1NC(=O)[C@H](CC(C)C)N(C)C(=O)C[C@@H](C)NC(=O)[C@H](C(C)C)N(C)C(=O)C2(CCCC2)NC(=O)[C@@H]2CCCN2C(=O)[C@H](CCc2ccc(C(F)(F)F)c(Cl)c2)NC(=O)CN(C)C(=O)[C@H](Cc2ccc(OC(F)(F)F)cc2)N(C)C(=O)CN(C)C(=O)CN(C)C1=O` [Compound 1565] (cyclo([Ac5c][NMeV][d(β3hA)][NMeL]I[Sar][Sar][NMeY](CF3)[Sar][hPhe(3-Cl-4-CF3)]P)), for which the IC50 in assay [1] was 14 nM; in assay [2], 100 to 500 nM.

Take `CC[C@H](C)[C@@H]1NC(=O)[C@H](CC(C)C)N(C)C(=O)C[C@@H](C(=O)N2C3CCC2COC3)N(C)C(=O)[C@H]([C@@H](C)CC)N(C)C(=O)C2(CCCC2)NC(=O)[C@@H]2CCCN2C(=O)[C@H](CCc2ccc(C(F)(F)F)c(Cl)c2)NC(=O)CN(C)C(=O)[C@H](CC2CCCCC2)N(C)C(=O)CN(C)C(=O)CN(C)C1=O` [Compound 1938] ([NMeL]I[Sar][Sar][NMeCha][Sar][hPhe(3-Cl-4-CF3)]P[Ac5c][NMeI][NMeD]-{3Oxa8azabicyclo(3.2.1)octane}; lactam N-11): the IC50 in assay [1] was 0.76 nM; in assay [2], 20 to 50 nM.

Consider `CC[C@H](C)[C@@H]1NC(=O)[C@H](C2CCCC2)N(C)C(=O)C[C@@H](C(=O)N2CCCCC2)N(C)C(=O)[C@H](C2CCCCC2)N(C)C(=O)C2(CCCC2)NC(=O)[C@@H]2CCCN2C(=O)[C@H](CCc2ccc(C(F)(F)F)c(Cl)c2)NC(=O)CN(C)C(=O)[C@H](CC2CCCCC2)N(C)C(=O)CN(C)C(=O)CN(C)C1=O` [Compound 1835] ([NMeGly(cPent)]I[Sar][Sar][NMeCha][Sar][hPhe(3-Cl-4-CF3)]P[Ac5c][NMeChg][NMeD]-Piperidide; lactam N-11), for which the IC50 was 1.1 nM in assay [1] and 50 to 100 nM in assay [2].

For `CC[C@H](C)[C@@H]1NC(=O)[C@H](COC2CC2)N(C)C(=O)C[C@@H](C(=O)N2CCCCC2)N(C)C(=O)[C@H](C2CCCCC2)N(C)C(=O)C2(CCCC2)NC(=O)[C@@H]2CCCN2C(=O)[C@H](CCc2ccc(C(F)(F)F)c(Cl)c2)NC(=O)CN(C)C(=O)[C@H](CC2CCCCC2)N(C)C(=O)CN(C)C(=O)CN(C)C1=O` [Compound 1786] ([NMeS](Cyclopropyl)I[Sar][Sar][NMeCha][Sar][hPhe(3-Cl-4-CF3)]P[Ac5c][NMeChg][NMeD]-Piperidide; lactam N-11), the IC50 in assay [1] is 0.72 nM; in assay [2] it was 50 to 100 nM.
